In patent US20260027117A1, “METHODS OF TREATING SMALL CELL LUNG CANCER” (Debiopharm International S.A., priority 2022, published 2026):

What was measured:
[1] = system: NCI-H446 SCLC tumor cells; assay: NCI-H446 CDX model, tumor growth inhibition; assay type: in vivo, Balb/c nude mice; settings: 16 day cycle; for TGI effects compared to vehicle: monotherapy, Compound of formula (I) 30 mg/kg QD 3 consecutive days a week P.O., carboplatin 50 mg/kg QW I.V.
Procedure: (§1) Female Balb/c nude mice were inoculated subcutaneously with 5×10^6 NCI-H446 SCLC tumor cells. Animals were randomized when tumor volume reached approximately 100-150 mm^3. Animals were treated with vehicle (0.5% methycellulose, 1% Tween 80 P.O. and saline I.V.), Compound of formula (I) formulated as a suspension in 0.5% methycellulose and 1% Tween 80 (30 mg/kg QD, 3 consecutive days a week, P.O.), or Carboplatin (50 mg/kg QW, I.V.) administered over a 16 day cycle, either alone or in combination (5 animals per group). In combination arms, Compound of formula (I) was administered 2 hours prior to chemotherapy. Tumor growth was monitored twice weekly by caliper measurement and tumor volume calculated using the equation V=(L×W×W)/2, where V is tumor volume, L is tumor length (the longest tumor dimension) and W is tumor width (the longest tumor dimension perpendicular to L). During routine monitoring, the animals were checked for any effects of tumor growth and treatments on behavior such as mobility, food and water consumption, body weight gain/loss 3 times a week, eye/hair matting and any other abnormalities. Mortality and observed clinical signs were recorded for individual animals.

SCLC = SCLC patients; in combination with olaparib, or with carboplatin in platinum-refractory SCLC (BALTIC study, Arm B, NCT02937818); preliminary data; cited from earlier work
NCI-H446 tumor cells = assay: In vitro synergy, CellTiter-Glo viability assay with Bliss synergy method; assay type: cell-based; settings: in combination with carboplatin, 72 hours, 9 doses, 0-10 uM and carboplatin 0-300 uM, Bliss score >5 demonstrates synergy
Procedure: NCI-H446 tumor cells were plated at a density of 5000 cells/90 ul in 96 well plates. Cells were treated with Compound of formula (I) and/or carboplatin, either alone or in combination with 9 different doses (3-fold serial dilutions starting at 10 uM for Compound of formula (I) and 300 uM for carboplatin) for 72 hours.

[2] = system: NCI-H1048 SCLC tumor cells; assay: NCI-H1048 cell line-derived xenograft (CDX) model, tumor growth inhibition; assay type: in vivo, Balb/c nude mice
Procedure: (§2) Female Balb/c nude mice were inoculated subcutaneously with 5×10^6 NCI-H1048 SCLC tumor cells. Animals were randomized when tumor volume reached approximately 100-150 mm^3. Animals were treated with vehicle (0.5% methycellulose, 1% Tween 80 P.O. and saline I.V.), Compound of formula (I) formulated as a suspension in 0.5% methycellulose and 1% Tween 80 (30 mg/kg QD, P.O.), Carboplatin (50 mg/kg QW, I.V.) or etoposide (25 mg/kg or 12.5 mg/kg QW, I.P.), administered over a 21 day cycle, either alone or in combination (8 animals per group in double combination studies; 10 animals per group in triple combination study). In combination arms, Compound of formula (I) was administered 2 hours prior to chemotherapy. Tumor growth was monitored twice weekly by caliper measurement and tumor volume calculated using the equation V=(L×W×W)/2, where V is tumor volume, L is tumor length (the longest tumor dimension) and W is tumor width (the longest tumor dimension perpendicular to L). During routine monitoring, the animals were checked for any effects of tumor growth and treatments on behavior such as mobility, food and water consumption, body weight gain/loss 3 times a week, eye/hair matting and any other abnormalities. Mortality and observed clinical signs were recorded for individual animals.

[3] = NCI-H1048 CDX model, tolerability (body weight); assay type: in vivo
Procedure: as §2

[4] = NCI-H446 CDX model, tolerability (body weight); assay type: in vivo; settings: in combination with carboplatin 50 mg/kg QW I.V.; 16 day cycle
Procedure: as §1

SC6 PDX tumors = assay: SC6 patient derived xenograft (PDX) model, tumor growth inhibition; assay type: in vivo, athymic nude mice; settings: for tumor growth inhibition (TGI): 30 mg/kg QD P.O. in combination with etoposide 6 mg/kg QD [3 d on/4 d off] I.P., compared to vehicle control
Procedure: (§3) Female athymic nude mice were inoculated subcutaneously with tumor fragments from SC6 PDX tumors. Animals were randomized when tumor volume reached approximately 60-200 mm^3. Animals were treated with vehicle (0.5% methycellulose, 1% Tween 80 P.O. and saline I.V.), Compound of formula (I) formulated as a suspension in 0.5% methycellulose and 1% Tween 80 (30 mg/kg QD, P.O.), Carboplatin (25 mg/kg QW, I.P.) or etoposide (6 mg/kg QD [3 d on/4 d off], I.P.), administered over a 21 day cycle either alone or in combination (7 animals per group). In combination arms, Compound of formula (I) was administered 2 hours prior to chemotherapy. Tumor growth was monitored twice weekly by caliper measurement and tumor volume calculated using the equation V=(L×W×W)/2, where V is tumor volume, L is tumor length (the longest tumor dimension) and W is tumor width (the longest tumor dimension perpendicular to L). During routine monitoring, the animals were checked for any effects of tumor growth and treatments on behavior such as mobility, food and water consumption, body weight gain/loss 3 times a week, eye/hair matting and any other abnormalities. Mortality and observed clinical signs were recorded for individual animals.

[5] = SC6 PDX model, tolerability (body weight); assay type: in vivo; settings: in combination with etoposide
Procedure: as §3

SCLC organoids = assay: SCLC organoid models, Cell Titer Glow 3D viability and Bliss synergy; assay type: cell-based; settings: for bliss synergy score: vs carboplatin/etoposide (5:1 ratio) as a single treatment
Procedure: SCLC organoids from 16 models were prepared as follows: SCLC organoid models were expanded in 6-well plates, each well containing 2 ml of organoid medium. On the day of organoid seeding 20 μL 100× Dispase solution was added to each well and the plates were incubated at 37° C. for 30 min. Organoids were passed through a pre-wet 100 μm filter into a 50 ml plastic tube and subsequently further filtered through a wet 20 μm filter. Organoids were resuspended in culture media and counted. Matrigel was added to a final concentration of 5% v/v and 40 μL of cell suspensions add to each well of a 384-well plate by Multidrop dispenser.
The treatments tested for each organoid model were as follows: • (a) Compound of Formula (I) in monotherapy, • (b) carboplatin and etoposide (in a 5:1 ratio, considered as a single treatment), or • (c) Compound of Formula (I) in combination with carboplatin and etoposide, using the following concentrations in a matrix format: compound of Formula (I) in 6 concentrations from 0.047 to 1.5 μM, carboplatin in 6 concentrations from 0.156 to 5 μM, and etoposide in 6 concentrations from 0.031 to 1 μM)). Thus, for the carboplatin and etoposide treatment (considered as a single treatment in this experiment), the lowest concentration of carboplatin was combined with the lowest concentration of etoposide in a 5:1 ratio, the 2nd lowest doses of both reagents were combined, etc., while maintaining the 5:1 ratio. Then, each of these combinations were used either alone (carboplatin/etoposide treatment) or in further combination with each concentration of Compound of Formula (I).
The screening plates were incubated with treatments for 5 days. All treatments were performed in technical triplicates and biological replicates.
Plates were assayed for luminescent Cell Titer Glow (CTG) signal by adding 40 μL of CTG 3D per well by Multidrop dispenser, mixing for 5 mins and incubating for 30 min at room temperature in the dark. Luminescence signal was then measured on Envision plate reader.
The surviving and inhibition rates were calculated as follows for each treatment: […]
For synergy calculations and creation of heatmaps, the Bliss independence model was used on synergyfinder.org (Zheng, S.; Wang, W.; Aldahdooh, J.; Malyutina, A.; Shadbahr, T.; Tanoli Z; Pessia, A.; Jing, T. SynergyFinder Plus: Toward Better Interpretation and Annotation of Drug Combination Screening Datasets. Genomics, Proteomics & Bioinformatics 2022, in press. doi:10.1016/j.gpb.2022.01.004) considering carboplatin/etoposide as a single treatment vs Compound of Formula (I). 9 out of 16 models had bliss synergy scores >5 between Compound of Formula (I) and the carboplatin/etoposide treatment. […]

[6] = triple combination with carboplatin and etoposide

N.N.O=C([O-])C1(C(=O)[O-])CCC1.[Pt+2] [carboplatin, reference compound]
TGI effects compared to vehicle [1]: no significant TGI effects

C=CCn1c(=O)c2cnc(Nc3ccc(N4CCN(C)CC4)cc3)nc2n1-c1cccc(C(C)(C)O)n1 [adavosertib]
antitumor activity (SCLC): limited antitumor activity

Cc1cc(Nc2ncc3c(n2)N(C)CN(c2c(Cl)cccc2Cl)C3=O)ccc1C1CCN(C)CC1 [Compound of formula (I)]
synergistic antitumor activity (Bliss synergy) (NCI-H446 tumor cells): strong synergistic antitumor activity | tumor growth inhibition (TGI) ([2]; 30 mg/kg QD P.O. in combination with carboplatin 50 mg/kg QW I.V., 21 day cycle, vs vehicle controls, p=0.0026): about 68% | tumor growth inhibition (TGI) ([2]; 30 mg/kg QD P.O. in combination with etoposide (25 mg/kg or 12.5 mg/kg QW I.P.), 21 day cycle, vs vehicle controls, p=0.00015): ~78% | tumor growth inhibition (TGI) ([2]; monotherapy 30 mg/kg QD P.O., 21 day cycle, vs vehicle, p=0.016): up to 54% | tumor growth inhibition (TGI) ([2]; triple combination with carboplatin (50 mg/kg) and etoposide (12.5 mg/kg), compared to carboplatin and etoposide combination, p=0.0043): 44% | tumor growth inhibition (TGI) ([2]; triple combination with carboplatin (50 mg/kg) and etoposide (12.5 mg/kg), compared to vehicle controls, p<0.0001): 72% | tumor response ([2]; triple combination with carboplatin and etoposide, compared to carboplatin and etoposide treatments alone or to the double combination): significantly improved tumor response | body weight loss ([3]; in combination with carboplatin 50 mg/kg QW I.V.): No significant body weight loss | body weight loss ([3]; in combination with etoposide QW I.P.): No significant body weight loss | body weight loss ([3]; monotherapy 30 mg/kg QD P.O., 21 day cycle): No significant body weight loss | body weight loss [3, 6]: No significant body weight loss | tolerability [3, 6]: well tolerated | tumor growth inhibition (TGI) ([1]; 30 mg/kg QD 3 consecutive days a week P.O. in combination with carboplatin 50 mg/kg QW I.V., compared to vehicle, p=0.028): 67% | TGI effects compared to vehicle [1]: no significant TGI effects | body weight loss [4]: No significant body weight loss | tumor growth inhibition (TGI) (SC6 PDX tumors; day 7): 34% | tumor growth inhibition (TGI) (SC6 PDX tumors; day 11, p=0.012): 61% | mice remaining below the maximum tumor volume ethical criteria at end of treatment (SC6 PDX tumors; in combination with etoposide, end of treatment (21 days), 7 animals per group): 4/7 | tolerability [5]: well tolerated | body weight loss ([5]; immediately following treatment, all animals recovered quickly): some transient body weight losses | IC50 (SCLC organoids; 120 h, monotherapy, 5 days, in 12 out of 16 SCLC organoids): < 1500 nM | inhibition at 1.5 µM (SCLC organoids; monotherapy, at 1.5 uM (highest dose tested), in 12 out of 16 SCLC organoids, read-out: maximum inhibition rate (cell death rate)): > 60% | bliss synergy score (SCLC organoids; 5 days, in 5 of these models (FIG. 8), highly significant): > 10 | bliss synergy score (SCLC organoids; 5 days, in 9 out of 16 SCLC organoid models): > 5
